Literature values, collected in patent US20170304196A1, “ORALLY DISINTEGRATING TABLET AND METHOD FOR PRODUCING SAME” (FUJIFILM CORPORATION, priority 2015, published 2017).

Details: anionic substance

## CCCCCCCCCCCCOS(=O)(=O)[O-].[Na+] [sodium lauryl sulfate]
  pKa: 1.9
